Assay results from patent US6806230B1, “Pyrimidine derivatives and herbicides containing them” (Kumiai Chemical Industry Co., Ltd., priority 1999, dated 2004).

tested on: barnyard grass (Ec); experiment: Test Example 2: herbicidal effects by upland soil treatment; format: in vivo; parameters: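 0-5 growth inhibition grade; 5 = over 90%; 4 = 70-90%; 3 = 50-70%; 2 = 30-50%; 1 = 10-30%; 0 = under 10%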; details: dose 100 g active ingredient per 10 ares, examined on the 21st day after treatment
Method: In a 80 cm^2 plastic pot, upland soil was filled, and seeds of barnyard grass (Ec) and green foxtail (Se) were sown and covered with soil. A wettable powder prepared in accordance with Formulation Example 1 was diluted with water and uniformly applied to the soil surface by means of a small size spray at a rate of 100 l per 10 ares, so that the dose of the active ingredient would be 100 g per 10 ares. Thereafter, cultivation was carried out in a green house, and on the 21st day after the treatment, the herbicidal effects were examined in accordance with the standards as identified in Table 44.

SMILES	Ec (herbicidal effects, index)
C#CCN(C(=O)Cc1ccsc1)C(c1cncnc1C(F)(F)F)C(C)C (racemic) [2-78]	5
CCCc1ncncc1C(C(C)C)N(C)C(=O)Cc1ccc(C)cc1 (racemic) [1-448]	5
CN(C(=O)Cc1ccsc1)C(c1ccccc1)c1cncnc1C(F)(F)F (racemic) [2-20]	5
CC(C)C(c1cncnc1C(F)(F)F)N(C)C(=O)Cc1ccc2ccccc2c1 (racemic) [2-1]	5
CC(C)C(c1cncnc1C(F)(F)F)N(C)C(=O)Cc1cc(F)cc(F)c1F (racemic) [1-444]	5
CON=CC(c1cncnc1C(C)C)N(C)C(=O)Cc1ccc(C)cc1 (racemic) [1-465]	5
CN(C(=O)Cc1cccs1)C(c1cncnc1C(F)(F)F)C1(C)CC1 (racemic) [2-55]	5
C#CCN(C(=O)Cc1ccc(C)cc1)C(c1cncnc1C(C)C)C(C)C (racemic) [1-624]	5
CN(C(=O)Cc1ccsc1)C(c1cncnc1C(F)(F)F)C1(C)CC1 (racemic) [2-56]	5
C=CCN(C(=O)Cc1ccc(C)cc1)C(c1cncnc1C(F)(F)F)C(C)C (racemic) [1-521]	5
CN(C(=O)Cc1ccc(Cl)cc1)C(c1ccccc1F)c1cncnc1C(F)(F)F (racemic) [1-548]	5
CN(C(=O)Cc1ccc(F)cc1)C(c1cccs1)c1cncnc1C(F)(F)F (racemic) [1-234]	5
CN(C(=O)Cc1ccc(Cl)s1)C(c1ccccc1)c1cncnc1C(F)(F)F (racemic) [2-31]	5
CN(C(=O)Cc1ccc(Cl)s1)C(c1cncnc1C(F)(F)F)C1(C)CC1 (racemic) [2-58]	5

tested on: barnyard grass (Eo); experiment: Test Example 1: herbicidal effects by flooded paddy field treatment; format: in vivo; parameters: herbicidal effects, Eo (barnyard grass):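 0-5 growth inhibition grade; 5 = over 90%; 4 = 70-90%; 3 = 50-70%; 2 = 30-50%; 1 = 10-30%; 0 = under 10%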; details: dose 100 g active ingredient per 10 ares, examined on the 21st day after treatment, standards of Table 44
Summary of the method: (§1)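 Herbicidal effect scored 21 days post-treatment after greenhouse cultivation. Treatment was applied dropwise to the water surface, one day after sowing, as a diluted wettable powder (100 g a.i./10 ares). Pots held puddled paddy soil under 3 cm water.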

SMILES	herbicidal effects, Eo (barnyard grass)
C#CCN(C(=O)Cc1ccsc1)C(c1cncnc1C(F)(F)F)C(C)C (racemic) [2-78]	5
CCCc1ncncc1C(C(C)C)N(C)C(=O)Cc1ccc(C)cc1 (racemic) [1-448]	5
CN(C(=O)Cc1ccsc1)C(c1ccccc1)c1cncnc1C(F)(F)F (racemic) [2-20]	5
CC(C)C(c1cncnc1C(F)(F)F)N(C)C(=O)Cc1ccc2ccccc2c1 (racemic) [2-1]	5
CC(C)C(c1cncnc1C(F)(F)F)N(C)C(=O)Cc1cc(F)cc(F)c1F (racemic) [1-444]	5
CON=CC(c1cncnc1C(C)C)N(C)C(=O)Cc1ccc(C)cc1 (racemic) [1-465]	5
CN(C(=O)Cc1cccs1)C(c1cncnc1C(F)(F)F)C1(C)CC1 (racemic) [2-55]	5
C#CCN(C(=O)Cc1ccc(C)cc1)C(c1cncnc1C(C)C)C(C)C (racemic) [1-624]	5
CN(C(=O)Cc1ccsc1)C(c1cncnc1C(F)(F)F)C1(C)CC1 (racemic) [2-56]	5
C=CCN(C(=O)Cc1ccc(C)cc1)C(c1cncnc1C(F)(F)F)C(C)C (racemic) [1-521]	5
CN(C(=O)Cc1ccc(Cl)cc1)C(c1ccccc1F)c1cncnc1C(F)(F)F (racemic) [1-548]	5
CN(C(=O)Cc1ccc(F)cc1)C(c1cccs1)c1cncnc1C(F)(F)F (racemic) [1-234]	5
CN(C(=O)Cc1ccc(Cl)s1)C(c1ccccc1)c1cncnc1C(F)(F)F (racemic) [2-31]	5
CN(C(=O)Cc1ccc(Cl)s1)C(c1cncnc1C(F)(F)F)C1(C)CC1 (racemic) [2-58]	5

tested on: barnyard grass (Eo); experiment: Test Example 4: selectivity for a crop plant by flooded paddy field treatment; format: in vivo; parameters: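 0-5 growth inhibition grade; 5 = over 90%; 4 = 70-90%; 3 = 50-70%; 2 = 30-50%; 1 = 10-30%; 0 = under 10%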; details: barnyard grass, dose 25 gai/10a, 21st day after treatment, index per Table 44
Method: (§2) In a 100 cm^2 plastic pot, a paddy field soil was filled and paddled. Then, seeds of barnyard grass (Eo) and monochoria (Mo) were sown, and rice (Or) of second leaf stage was transplanted, and water was introduced to a depth of 3 cm. Next day, a wettable powder prepared in accordance with Formulation Example 1 was diluted with water and dropwise applied to the water surface. The dose was 25 g of the active ingredient per 10 ares. Thereafter, cultivation was carried out in a green house, and on the 21st day after the treatment, the herbicidal effects were examined in accordance with the standards of Table 44.

SMILES	Eo (herbicidal effect index)
C#CCN(C(=O)Cc1ccsc1)C(c1cncnc1C(F)(F)F)C(C)C (racemic) [2-78]	5
CCCc1ncncc1C(C(C)C)N(C)C(=O)Cc1ccc(C)cc1 (racemic) [1-448]	5
CN(C(=O)Cc1ccsc1)C(c1ccccc1)c1cncnc1C(F)(F)F (racemic) [2-20]	5
CC(C)C(c1cncnc1C(F)(F)F)N(C)C(=O)Cc1ccc2ccccc2c1 (racemic) [2-1]	5
CC(C)C(c1cncnc1C(F)(F)F)N(C)C(=O)Cc1cc(F)cc(F)c1F (racemic) [1-444]	5
CON=CC(c1cncnc1C(C)C)N(C)C(=O)Cc1ccc(C)cc1 (racemic) [1-465]	5
CN(C(=O)Cc1cccs1)C(c1cncnc1C(F)(F)F)C1(C)CC1 (racemic) [2-55]	5
C#CCN(C(=O)Cc1ccc(C)cc1)C(c1cncnc1C(C)C)C(C)C (racemic) [1-624]	5
CN(C(=O)Cc1ccsc1)C(c1cncnc1C(F)(F)F)C1(C)CC1 (racemic) [2-56]	5
C=CCN(C(=O)Cc1ccc(C)cc1)C(c1cncnc1C(F)(F)F)C(C)C (racemic) [1-521]	5
CN(C(=O)Cc1ccc(Cl)cc1)C(c1ccccc1F)c1cncnc1C(F)(F)F (racemic) [1-548]	5
CN(C(=O)Cc1ccc(F)cc1)C(c1cccs1)c1cncnc1C(F)(F)F (racemic) [1-234]	5
CN(C(=O)Cc1ccc(Cl)s1)C(c1ccccc1)c1cncnc1C(F)(F)F (racemic) [2-31]	5
CN(C(=O)Cc1ccc(Cl)s1)C(c1cncnc1C(F)(F)F)C1(C)CC1 (racemic) [2-58]	5

tested on: monochoria (Mo); experiment: as above; format: in vivo; parameters: scale not given here; details: monochoria, dose 25 gai/10a, 21st day after treatment, index per Table 44
Method: as §2

SMILES	Mo (herbicidal effect index)
C#CCN(C(=O)Cc1ccsc1)C(c1cncnc1C(F)(F)F)C(C)C (racemic) [2-78]	5
CCCc1ncncc1C(C(C)C)N(C)C(=O)Cc1ccc(C)cc1 (racemic) [1-448]	5
CN(C(=O)Cc1ccsc1)C(c1ccccc1)c1cncnc1C(F)(F)F (racemic) [2-20]	5
CC(C)C(c1cncnc1C(F)(F)F)N(C)C(=O)Cc1ccc2ccccc2c1 (racemic) [2-1]	5
CC(C)C(c1cncnc1C(F)(F)F)N(C)C(=O)Cc1cc(F)cc(F)c1F (racemic) [1-444]	5
CON=CC(c1cncnc1C(C)C)N(C)C(=O)Cc1ccc(C)cc1 (racemic) [1-465]	5
CN(C(=O)Cc1cccs1)C(c1cncnc1C(F)(F)F)C1(C)CC1 (racemic) [2-55]	5
C#CCN(C(=O)Cc1ccc(C)cc1)C(c1cncnc1C(C)C)C(C)C (racemic) [1-624]	5
CN(C(=O)Cc1ccsc1)C(c1cncnc1C(F)(F)F)C1(C)CC1 (racemic) [2-56]	5
C=CCN(C(=O)Cc1ccc(C)cc1)C(c1cncnc1C(F)(F)F)C(C)C (racemic) [1-521]	5
CN(C(=O)Cc1ccc(Cl)cc1)C(c1ccccc1F)c1cncnc1C(F)(F)F (racemic) [1-548]	5
CN(C(=O)Cc1ccc(F)cc1)C(c1cccs1)c1cncnc1C(F)(F)F (racemic) [1-234]	5
CN(C(=O)Cc1ccc(Cl)s1)C(c1ccccc1)c1cncnc1C(F)(F)F (racemic) [2-31]	5
CN(C(=O)Cc1ccc(Cl)s1)C(c1cncnc1C(F)(F)F)C1(C)CC1 (racemic) [2-58]	5

tested on: rice (Or); experiment: as above; format: in vivo; parameters: scale not given here; details: rice transplanted at second leaf stage, dose 25 gai/10a, 21st day after treatment, index per Table 44
Method: as §2

SMILES	Or (herbicidal effect index on crop)
C#CCN(C(=O)Cc1ccsc1)C(c1cncnc1C(F)(F)F)C(C)C (racemic) [2-78]	1
CCCc1ncncc1C(C(C)C)N(C)C(=O)Cc1ccc(C)cc1 (racemic) [1-448]	1
CN(C(=O)Cc1ccsc1)C(c1ccccc1)c1cncnc1C(F)(F)F (racemic) [2-20]	1
CC(C)C(c1cncnc1C(F)(F)F)N(C)C(=O)Cc1ccc2ccccc2c1 (racemic) [2-1]	0
CC(C)C(c1cncnc1C(F)(F)F)N(C)C(=O)Cc1cc(F)cc(F)c1F (racemic) [1-444]	1
CON=CC(c1cncnc1C(C)C)N(C)C(=O)Cc1ccc(C)cc1 (racemic) [1-465]	0
CN(C(=O)Cc1cccs1)C(c1cncnc1C(F)(F)F)C1(C)CC1 (racemic) [2-55]	1
C#CCN(C(=O)Cc1ccc(C)cc1)C(c1cncnc1C(C)C)C(C)C (racemic) [1-624]	1
CN(C(=O)Cc1ccsc1)C(c1cncnc1C(F)(F)F)C1(C)CC1 (racemic) [2-56]	1
C=CCN(C(=O)Cc1ccc(C)cc1)C(c1cncnc1C(F)(F)F)C(C)C (racemic) [1-521]	1
CN(C(=O)Cc1ccc(Cl)cc1)C(c1ccccc1F)c1cncnc1C(F)(F)F (racemic) [1-548]	1
CN(C(=O)Cc1ccc(F)cc1)C(c1cccs1)c1cncnc1C(F)(F)F (racemic) [1-234]	1
CN(C(=O)Cc1ccc(Cl)s1)C(c1ccccc1)c1cncnc1C(F)(F)F (racemic) [2-31]	0
CN(C(=O)Cc1ccc(Cl)s1)C(c1cncnc1C(F)(F)F)C1(C)CC1 (racemic) [2-58]	1

tested on: monochoria (Mo); experiment: Test Example 1: herbicidal effects by flooded paddy field treatment; format: in vivo; parameters: herbicidal effects, Mo (monochoria):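 0-5 growth inhibition grade; 5 = over 90%; 4 = 70-90%; 3 = 50-70%; 2 = 30-50%; 1 = 10-30%; 0 = under 10%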; details: dose 100 g active ingredient per 10 ares, examined on the 21st day after treatment, standards of Table 44
Summary of the method: as §1

SMILES	herbicidal effects, Mo (monochoria)
C#CCN(C(=O)Cc1ccsc1)C(c1cncnc1C(F)(F)F)C(C)C (racemic) [2-78]	5
CCCc1ncncc1C(C(C)C)N(C)C(=O)Cc1ccc(C)cc1 (racemic) [1-448]	5
CN(C(=O)Cc1ccsc1)C(c1ccccc1)c1cncnc1C(F)(F)F (racemic) [2-20]	5
CC(C)C(c1cncnc1C(F)(F)F)N(C)C(=O)Cc1ccc2ccccc2c1 (racemic) [2-1]	5
CC(C)C(c1cncnc1C(F)(F)F)N(C)C(=O)Cc1cc(F)cc(F)c1F (racemic) [1-444]	5
CON=CC(c1cncnc1C(C)C)N(C)C(=O)Cc1ccc(C)cc1 (racemic) [1-465]	5
CN(C(=O)Cc1cccs1)C(c1cncnc1C(F)(F)F)C1(C)CC1 (racemic) [2-55]	5
C#CCN(C(=O)Cc1ccc(C)cc1)C(c1cncnc1C(C)C)C(C)C (racemic) [1-624]	5
CN(C(=O)Cc1ccsc1)C(c1cncnc1C(F)(F)F)C1(C)CC1 (racemic) [2-56]	5
C=CCN(C(=O)Cc1ccc(C)cc1)C(c1cncnc1C(F)(F)F)C(C)C (racemic) [1-521]	5
CN(C(=O)Cc1ccc(Cl)cc1)C(c1ccccc1F)c1cncnc1C(F)(F)F (racemic) [1-548]	5
CN(C(=O)Cc1ccc(F)cc1)C(c1cccs1)c1cncnc1C(F)(F)F (racemic) [1-234]	5
CN(C(=O)Cc1ccc(Cl)s1)C(c1ccccc1)c1cncnc1C(F)(F)F (racemic) [2-31]	5
CN(C(=O)Cc1ccc(Cl)s1)C(c1cncnc1C(F)(F)F)C1(C)CC1 (racemic) [2-58]	5
